SMILES strings stand for the structures.

The first assay deals with Gallus gallus. Description: Antiemetic activity against copper sulfate-induced emesis in young chicks assessed as decrease in retching at 20 mg/kg, ip measured for 10 mins. Particulars: route intraperitoneal. It is filed as functional.
Usually inhibition in vivo stands for how much of the control response was suppressed. For the compound `O=C(CCc1ccccc1)CC(O)CCc1ccc(O)cc1` (stereo not drawn), the inhibition in vivo at 20 mg/kg was determined as 71%. Consider `O=c1c(O)c(-c2ccccc2)oc2cc(O)cc(O)c12` [GALANGIN], for which the inhibition in vivo at 20 mg/kg was 25.4%.

As for `COc1ccc(-c2oc3cc(O)cc(O)c3c(=O)c2O)cc1` [KAEMPFERIDE], the inhibition in vivo at 20 mg/kg stood at 63.3%.

Another assay relates to Gallus gallus. Put plainly: Antiemetic activity against copper sulphate-induced emesis in young chicks assessed as decrease in retching at 50 mg/kg, ip measured for 10 mins. It is filed as functional. Particulars: route intraperitoneal.
As for `COc1cc(CC[C@@H](O)CC(=O)CCc2ccc(O)cc2)ccc1O`, the inhibition in vivo at 50 mg/kg amounted to 38.3%. Regarding `Oc1ccc(CC[C@@H](O)C[C@H](O)CCc2ccccc2)cc1`, the inhibition in vivo at 50 mg/kg came to 37.7%. With `COc1cc(CCC(=O)C[C@H](O)CCc2ccc(O)cc2)ccc1O`, the inhibition in vivo at 50 mg/kg amounted to 12.4%. On to `CCCCCCCCCCCCCCCC(=O)OC[C@H]1O[C@@H](O[C@H]2CC[C@@]3(C)C(=CC[C@H]4[C@@H]5CC[C@H]([C@H](C)CC[C@H](CC)C(C)C)[C@@]5(C)CC[C@@H]43)C2)[C@H](O)[C@@H](O)[C@@H]1O`, for which the inhibition in vivo at 50 mg/kg amounted to 50.9%. Same read-out and setting: the figure for `COc1cc(CCC(O)CC(O)CCc2ccccc2)ccc1O` (stereo not drawn) is 45.7%.

Values taken from ChEMBL document CHEMBL1150636, “Antiemetic principles of Alpinia officinarum” (2002).
